Reference: ChEMBL document CHEMBL3044741, “Synthesis of novel biologically active methylene derivatives of sydnones” (Med Chem Res, 2013)
In brackets after ≈: the same amount, converted by molar mass.

Assays:
Candida albicans [1] = assay: Antifungal activity against Candida albicans MTCC 227 at 250 ug/ml after 74 hrs by Kirby-Bauer method; format: functional; settings: MTCC 227, 74 h, read-out: IZ
Streptococcus pyogenes [2] = assay: Antibacterial activity against Streptococcus pyogenes MTCC 442 at 250 ug/ml after 24 hrs by Kirby-Bauer method; format: functional; settings: MTCC 442, 24 h, read-out: IZ
Pseudomonas aeruginosa [3] = assay: Antibacterial activity against Pseudomonas aeruginosa MTCC 424 at 250 ug/ml after 24 hrs by Kirby-Bauer method; format: functional; settings: MTCC 424, 24 h, read-out: IZ
Streptococcus pyogenes [4] = assay: Antibacterial activity against Streptococcus pyogenes MTCC 442 after 24 hrs by broth dilution method; format: functional; settings: MTCC 442, 24 h
Aspergillus clavatus [5] = assay: Antifungal activity against Aspergillus clavatus MTCC 1323; format: functional
[6] = tested on: Human immunodeficiency virus 1; assay: Antiviral activity against HIV1 3B infected in MT4 cells assessed as inhibition of virus-induced cytopathogenicity by MTT assay; format: functional, organism-based; settings: Human immunodeficiency virus 1, 3B
Pseudomonas aeruginosa [7] = assay: Antibacterial activity against Pseudomonas aeruginosa MTCC 424 after 24 hrs by broth dilution method; format: functional; settings: MTCC 424, 24 h
[8] = Selectivity index, ratio of CC50 for human MT4 cells to IC50 for HIV2 ROD; format: functional
Staphylococcus aureus [9] = assay: Antibacterial activity against Staphylococcus aureus MTCC 96 at 250 ug/ml after 24 hrs by Kirby-Bauer method; format: functional; settings: MTCC 96, 24 h, read-out: IZ
Aspergillus niger [10] = assay: Antifungal activity against Aspergillus niger MTCC 282 at 250 ug/ml after 74 hrs by Kirby-Bauer method; format: functional; settings: MTCC 282, 74 h, read-out: IZ
[11] = Cytotoxicity against human MT4 cells by MTT assay; format: cell-based
Human alphaherpesvirus 3 [12] = assay: Antiviral activity against thymidine kinase-deficient Varicella-zoster virus infected in HEL cells assessed as reduction in plaque formation; format: functional, organism-based; settings: Human alphaherpesvirus 3, HEL
Cytomegalovirus [13] = assay: Antiviral activity against Cytomegalovirus AD-169 infected in HEL cells assessed as reduction in plaque formation; format: functional, organism-based; settings: Human betaherpesvirus 5, AD-169, HEL
Candida albicans [14] = assay: Antifungal activity against Candida albicans MTCC 227; format: functional
[15] = tested on: Human immunodeficiency virus 2; assay: Antiviral activity against HIV2 ROD infected in MT4 cells assessed as inhibition of virus-induced cytopathogenicity by MTT assay; format: functional, organism-based; settings: Human immunodeficiency virus 2, ISOLATE ROD
Escherichia coli [16] = assay: Antibacterial activity against Escherichia coli MTCC 443 at 250 ug/ml after 24 hrs by Kirby-Bauer method; format: functional; settings: MTCC 443, 24 h, read-out: IZ
Aspergillus niger [17] = assay: Antifungal activity against Aspergillus niger MTCC 282; format: functional
Staphylococcus aureus [18] = assay: Antibacterial activity against Staphylococcus aureus MTCC 96 after 24 hrs by broth dilution method; format: functional; settings: MTCC 96, 24 h
Cytomegalovirus [19] = assay: Antiviral activity against Cytomegalovirus Davis in HEL cells assessed as reduction in plaque formation; format: functional, organism-based; settings: Human betaherpesvirus 5, Davis
Escherichia coli [20] = assay: Antibacterial activity against Escherichia coli MTCC 443 after 24 hrs by broth dilution method; format: functional; settings: MTCC 443, 24 h
Aspergillus clavatus [21] = assay: Antifungal activity against Aspergillus clavatus MTCC 1323 at 250 ug/ml after 74 hrs by Kirby-Bauer method; format: functional; settings: MTCC 1323, 74 h, read-out: IZ
[22] = Selectivity index, ratio of CC50 for human MT4 cells to IC50 for HIV1 3B; format: functional
[23] = Cytotoxicity against human HEL cells; format: cell-based
Human alphaherpesvirus 3 [24] = assay: Antiviral activity against Varicella-zoster virus Oka expressing thymidine kinase infected in HEL cells assessed as reduction in plaque formation; format: functional, organism-based; settings: Human alphaherpesvirus 3, strain Oka vaccine
[25] = Cytotoxicity against human HEL cells assessed as alteration in cell morphology; format: cell-based

| Compound | zone of inhibition at 250 µg/mL (Candida albicans [1]) [mm] | zone of inhibition at 250 µg/mL (Streptococcus pyogenes [2]) [mm] | zone of inhibition at 250 µg/mL (Pseudomonas aeruginosa [3]) [mm] | MIC (Streptococcus pyogenes [4]) [µg/mL] | MIC (Aspergillus clavatus [5]) [µg/mL] | IC50 [6] [µg/mL] | MIC (Pseudomonas aeruginosa [7]) [µg/mL] | Ratio CC50/IC50 [8] | zone of inhibition at 250 µg/mL (Staphylococcus aureus [9]) [mm] | zone of inhibition at 250 µg/mL (Aspergillus niger [10]) [mm] | CC50 [11] [µg/mL] | EC50 (Human alphaherpesvirus 3 [12]) [µg/mL] | EC50 (Cytomegalovirus [13]) [µg/mL] | MIC (Candida albicans [14]) [µg/mL] | IC50 [15] [µg/mL] | zone of inhibition at 250 µg/mL (Escherichia coli [16]) [mm] | MIC (Aspergillus niger [17]) [µg/mL] | MIC (Staphylococcus aureus [18]) [µg/mL] | EC50 (Cytomegalovirus [19]) [µg/mL] | MIC (Escherichia coli [20]) [µg/mL] | further results |
| --- | --- | --- | --- | --- | --- | --- | --- | --- | --- | --- | --- | --- | --- | --- | --- | --- | --- | --- | --- | --- | --- |
| [O-]c1on[n+](-c2ccc(Cc3ccc(-[n+]4noc([O-])c4CN4CCNCC4)cc3)cc2)c1CN1CCNCC1 | 21 | 17 | 21 | 500 (≈ 939 µM) | 1000 (≈ 1880 µM) | > 14 | 100 (≈ 188 µM) | <1 | 18 | 23 | 14 (≈ 26.3 µM) | > 4 | 11.7 (≈ 22 µM) | 1000 (≈ 1880 µM) | > 14 | 21 | 250 (≈ 469 µM) | 200 (≈ 376 µM) | 20 (≈ 37.6 µM) | 62.5 (≈ 117 µM) | zone of inhibition at 250 µg/mL (Aspergillus clavatus [21]): 19 mm; Ratio CC50/IC50 [22]: <1; CC50 [23]: 20 µg/mL (≈ 37.6 µM); EC50 (Human alphaherpesvirus 3 [24]): > 4 µg/mL; MCC [25]: 100 µg/mL |
| CC(=O)N1CCN(Cc2c([O-])on[n+]2-c2ccc(Cc3ccc(-[n+]4noc([O-])c4CN4CCN(C(C)=O)CC4)cc3)cc2)CC1 | 23 | 16 | 18 | 100 (≈ 162 µM) | 250 (≈ 405 µM) | > 12 | 200 (≈ 324 µM) | <1 | 20 | 21 | 12 (≈ 19.4 µM) | > 0.8 | > 4 | 250 (≈ 405 µM) | > 12 | 18 | 1000 (≈ 1620 µM) | 250 (≈ 405 µM) | > 4 | 250 (≈ 405 µM) | zone of inhibition at 250 µg/mL (Aspergillus clavatus [21]): 25 mm; Ratio CC50/IC50 [22]: <1; CC50 [23]: 10.2 µg/mL (≈ 16.5 µM); EC50 (Human alphaherpesvirus 3 [24]): > 0.8 µg/mL; MCC [25]: 20 µg/mL |
| [O-]c1on[n+](-c2ccc(Cc3ccc(-[n+]4noc([O-])c4CN4CCCCC4)cc3)cc2)c1CN1CCCCC1 | 22 | 20 | 20 | 125 (≈ 236 µM) | 500 (≈ 942 µM) | > 12 | 125 (≈ 236 µM) | <1 | 18 | 23 | 12.1 (≈ 22.7 µM) | > 4 | > 4 | 500 (≈ 942 µM) | > 12 | 16 | 250 (≈ 471 µM) | 250 (≈ 471 µM) | 20 (≈ 37.7 µM) | 500 (≈ 942 µM) | zone of inhibition at 250 µg/mL (Aspergillus clavatus [21]): 21 mm; Ratio CC50/IC50 [22]: <1; CC50 [23]: 12.6 µg/mL (≈ 23.7 µM); EC50 (Human alphaherpesvirus 3 [24]): > 4 µg/mL; MCC [25]: ≥ 20 µg/mL |
| Cc1ccc(-[n+]2noc([O-])c2CN2CCN(c3cccc(Cl)c3Cl)CC2)cc1 | 18 | 19 | 16 | 200 (≈ 477 µM) | 250 (≈ 596 µM) | > 31.7 | 1000 (≈ 2380 µM) | <1 | 17 | 21 | 31.7 (≈ 75.6 µM) | > 4 | 4 (≈ 9.54 µM) | 250 (≈ 596 µM) | > 31.7 | 21 | 500 (≈ 1190 µM) | 500 (≈ 1190 µM) | > 4 | 125 (≈ 298 µM) | zone of inhibition at 250 µg/mL (Aspergillus clavatus [21]): 23 mm; Ratio CC50/IC50 [22]: <1; CC50 [23]: 28.8 µg/mL (≈ 68.7 µM); EC50 (Human alphaherpesvirus 3 [24]): > 4 µg/mL; MCC [25]: 20 µg/mL |
